# Measurements from paper PMC6738096 (British Journal of Cancer, 2019).
# “Also recorded” adds a separate entry of the source.
# Experiment: Phase 1 dose-escalation trial: safety and tolerability (TEAEs, SAEs, DLT, MTD, RP2D)
# Details: for Patients with any AE leading to death: none deemed related to treatment
# [1] = safety population, regardless of causality
# Protocol: Endpoints included the incidence of DLTs (defined in the ‘Safety' section) in the first 28-day treatment cycle (cycle 1), the frequency and severity of adverse events (AEs) and serious AEs (SAEs) and changes in laboratory values, vital signs, physical examination findings and Eastern Cooperative Oncology Group (ECOG) performance status (PS).
# The starting dose was 30 mg, which was determined by review of nonclinical toxicokinetic assessments. A treatment cycle comprised 28 days in the absence of disease progression or unacceptable toxicity. Patients received starting doses ranging from 30 mg once every 24 hours (Q24h) to 480 mg Q24h, and escalation proceeded based on a 3 + 3 design.
# The subsequent cohort started at a reduced dosing regimen. Additional dosing schedules were once every 12 hours (Q12h) at 30 and 60 mg and once every 8 hours (Q8h) at 20 and 40 mg.
# Toxicities were graded and recorded according to NCI CTCAE version 4.03. Patients were assessed for DLTs during the first 28-day cycle. A DLT was defined as any grade ≥ 3 nonhaematologic toxicity, according to NCI CTCAE version 4.03.
compound,measurement,setting,value
CC(C)NC(=O)[C@H]1CC[C@@H](n2c(NC(=O)c3ccc(F)cc3)nc3ccc(CN4CCC(C(C)(C)O)CC4)cc32)CC1 [TSR-011],SAE: Bone pain,40 mg Q8h (n = 31),0 n (%)
same,SAE: Deep-vein thrombosis,40 mg Q8h (n = 31),0 n (%)
same,SAE: Dehydration,40 mg Q8h (n = 31),0 n (%)
same,SAE: Disease progression,40 mg Q8h (n = 31),2 (6.5) n (%)
same,SAE: Dyspnoea,40 mg Q8h (n = 31),0 n (%)
same,SAE: Gastric haemorrhage,40 mg Q8h (n = 31),0 n (%)
same,SAE: Gastric ulcer helicobacter,40 mg Q8h (n = 31),1 (3.2) n (%)
same,SAE: Infection,40 mg Q8h (n = 31),1 (3.2) n (%)
same,SAE: Lower respiratory tract infection,40 mg Q8h (n = 31),1 (3.2) n (%)
same,SAE: Mastoiditis,40 mg Q8h (n = 31),0 n (%)
same,SAE: Mental impairment,40 mg Q8h (n = 31),0 n (%)
same,SAE: Metastases to the central nervous system,40 mg Q8h (n = 31),1 (3.2) n (%)
same,SAE: Pericardial effusion,40 mg Q8h (n = 31),1 (3.2) n (%)
same,SAE: Pleural effusion,40 mg Q8h (n = 31),1 (3.2) n (%)
same,SAE: Pneumonia,40 mg Q8h (n = 31),1 (3.2) n (%)
same,SAE: Portal vein thrombosis,40 mg Q8h (n = 31),0 n (%)
same,SAE: Seizure,40 mg Q8h (n = 31),1 (3.2) n (%)
same,SAE: Subarachnoid haemorrhage,40 mg Q8h (n = 31),1 (3.2) n (%)
same,Total number of TEAEs,40 mg Q8h (n = 31),167
same,Total number of treatment-emergent SAEs,40 mg Q8h (n = 31),16
same,Patients with any AE leading to death,40 mg Q8h (n = 31),2 (6.5) Number (%)
same,Grade ≥ 3 pneumonitis or hypoxia,40 mg TID,no grade ≥ 3 pneumonitis or hypoxia was observed
same,Grade 3 ECG QTc prolongation within the DLT period,"320 mg Q24h cohort, an additional patient determined retrospectively",One patient
same,DLTs,"30-, 60-, 120- and 240-mg IR Q24h cohorts",none of the patients experienced DLTs
same,Maximum tolerated dose (MTD),320- and 480-mg Q24h doses,exceeded the maximum tolerated dose; also recorded: exceeded the MTD
same,Grade 3 QTc prolongation,480-mg Q24h cohort,two of four patients
same,Drug-related TEAE: Abnormal dreams,All patients (N = 72),2 (2.8) n (%)
same,Drug-related TEAE: Anaemia,All patients (N = 72),2 (2.8) n (%)
same,Drug-related TEAE: Asthenia,All patients (N = 72),2 (2.8) n (%)
same,Drug-related TEAE: Constipation,All patients (N = 72),5 (6.9) n (%)
same,Drug-related TEAE: Decreased appetite,All patients (N = 72),4 (5.6) n (%)
same,Drug-related TEAE: Diarrhoea,All patients (N = 72),3 (4.2) n (%)
same,Drug-related TEAE: Dysaesthesia,All patients (N = 72),2 (2.8) n (%)
same,Drug-related TEAE: Dysgeusia,All patients (N = 72),3 (4.2) n (%)
same,Drug-related TEAE: Electrocardiogram QTc prolonged,All patients (N = 72),12 (16.7) n (%)
same,Drug-related TEAE: Fatigue,All patients (N = 72),4 (5.6) n (%)
same,Drug-related TEAE: Headache,All patients (N = 72),3 (4.2) n (%)
same,Drug-related TEAE: Hot flush,All patients (N = 72),2 (2.8) n (%)
same,Drug-related TEAE: Increased transaminases,All patients (N = 72),2 (2.8) n (%)
same,Drug-related TEAE: Insomnia,All patients (N = 72),2 (2.8) n (%)
same,Drug-related TEAE: Myalgia,All patients (N = 72),2 (2.8) n (%)
same,Drug-related TEAE: Nausea,All patients (N = 72),3 (4.2) n (%)
same,Drug-related TEAE: Peripheral oedema,All patients (N = 72),3 (4.2) n (%)
same,Drug-related TEAE: Rash,All patients (N = 72),2 (2.8) n (%)
same,Drug-related TEAE: Vomiting,All patients (N = 72),4 (5.6) n (%)
same,Grade 3 TEAE: Anaemia,All patients (N = 72),5 (6.9) n (%)
same,Grade 3 TEAE: Ascites,All patients (N = 72),2 (2.8) n (%)
same,Grade 3 TEAE: Asthenia,All patients (N = 72),3 (4.2) n (%)
same,Grade 3 TEAE: Dyspnoea,All patients (N = 72),3 (4.2) n (%)
same,Grade 3 TEAE: Electrocardiogram QTc prolonged,All patients (N = 72),4 (5.6) n (%)
same,Grade 3 TEAE: Fatigue,All patients (N = 72),2 (2.8) n (%)
same,Grade 3 TEAE: Metastases to the central nervous system,All patients (N = 72),2 (2.8) n (%)
same,Patients with any TEAE,All patients (N = 72),70 (97.2) Number (%)
same,Patients with any TEAE leading to treatment discontinuation,All patients (N = 72),11 (15.3) Number (%)
same,Patients with any serious TEAE,All patients (N = 72),28 (38.9) Number (%)
same,Patients with any study drug-related TEAE,All patients (N = 72),40 (55.6) Number (%)
same,Patients with ≥ 1 treatment-emergent SAE,All patients (N = 72),28 (38.9) n (%)
same,SAE class: Blood and lymphatic system disorders,All patients (N = 72),2 (2.8) n (%)
same,SAE class: Cardiac disorders,All patients (N = 72),1 (1.4) n (%)
same,SAE class: Gastrointestinal disorders,All patients (N = 72),5 (6.9) n (%)
same,SAE class: General disorders and administration-site conditions,All patients (N = 72),7 (9.7) n (%)
same,SAE class: Hepatobiliary disorders,All patients (N = 72),1 (1.4) n (%)
same,SAE class: Infections and infestations,All patients (N = 72),5 (6.9) n (%)
same,SAE class: Metabolism and nutrition disorders,All patients (N = 72),1 (1.4) n (%)
same,SAE class: Musculoskeletal and connective tissue disorders,All patients (N = 72),1 (1.4) n (%)
same,"SAE class: Neoplasms benign, malignant and unspecified (including cysts and polyps)",All patients (N = 72),3 (4.2) n (%)
same,SAE class: Nervous system disorders,All patients (N = 72),8 (11.1) n (%)
same,"SAE class: Respiratory, thoracic and mediastinal disorders",All patients (N = 72),4 (5.6) n (%)
same,SAE class: Vascular disorders,All patients (N = 72),1 (1.4) n (%)
same,SAE: Abdominal pain,All patients (N = 72),1 (1.4) n (%)
same,SAE: Anaemia,All patients (N = 72),2 (2.8) n (%)
same,SAE: Asthenia,All patients (N = 72),1 (1.4) n (%)
same,SAE: Basal cell carcinoma,All patients (N = 72),1 (1.4) n (%)
same,SAE: Bone pain,All patients (N = 72),1 (1.4) n (%)
same,SAE: Deep-vein thrombosis,All patients (N = 72),1 (1.4) n (%)
same,SAE: Dehydration,All patients (N = 72),1 (1.4) n (%)
same,SAE: Disease progression,All patients (N = 72),6 (8.3) n (%)
same,SAE: Dyspnoea,All patients (N = 72),3 (4.2) n (%)
same,SAE: Gastric haemorrhage,All patients (N = 72),1 (1.4) n (%)
same,SAE: Gastric ulcer helicobacter,All patients (N = 72),1 (1.4) n (%)
same,SAE: Infection,All patients (N = 72),1 (1.4) n (%)
same,SAE: Lower respiratory tract infection,All patients (N = 72),1 (1.4) n (%)
same,SAE: Mastoiditis,All patients (N = 72),1 (1.4) n (%)
same,SAE: Mental impairment,All patients (N = 72),2 (2.8) n (%)
same,SAE: Metastases to the central nervous system,All patients (N = 72),2 (2.8) n (%)
same,SAE: Pericardial effusion,All patients (N = 72),1 (1.4) n (%)
same,SAE: Pleural effusion,All patients (N = 72),1 (1.4) n (%)
same,SAE: Pneumonia,All patients (N = 72),1 (1.4) n (%)
same,SAE: Portal vein thrombosis,All patients (N = 72),1 (1.4) n (%)
same,SAE: Seizure,All patients (N = 72),2 (2.8) n (%)
same,SAE: Subarachnoid haemorrhage,All patients (N = 72),1 (1.4) n (%)
same,Total number of TEAEs,All patients (N = 72),621
same,Total number of treatment-emergent SAEs,All patients (N = 72),49
same,Patients with any AE leading to death,All patients (N = 72),6 (8.3) Number (%)
same,"Most common grade 3–4 TEAEs, patients",RP2D 40 mg Q8h,3.2–6.5%
same,Recommended phase 2 dose (RP2D),"every 8 hours (Q8h, TID), IR",40 mg
same,"Grade 3 TEAEs, patients",safety population,51.4%
same,Grade 4 TEAE of anaemia,safety population,One patient
same,"SAE disease progression, patients",safety population,8.3%
same,"Study drug-related SAE, patients",safety population,1.4%
same,"Study drug-related TEAEs, patients",safety population,55.6%
same,"TEAEs leading to study drug discontinuation, patients",safety population,15.3%
same,TEAEs of grade 1 severity,safety population,64 % of events
same,"Treatment-emergent SAEs, patients",safety population,38.9%
same,Patients with ≥ 1 TEAE,safety population (N = 72),97.2%
same,"TEAE QTc prolongation, patients",[1],18.1%
same,"TEAE anaemia, patients",[1],15.3%
same,"TEAE asthenia, patients",[1],15.3%
same,"TEAE class gastrointestinal disorders, patients",[1],61.1%
same,"TEAE class general disorders and administration-site conditions, patients",[1],50.0%
same,"TEAE constipation, patients",[1],19.4%
same,"TEAE decreased appetite, patients",[1],15.3%
same,"TEAE diarrhoea, patients",[1],18.1%
same,"TEAE fatigue, patients",[1],19.4%
same,"TEAE headache, patients",[1],15.3%
same,"TEAE vomiting, patients",[1],18.1%
